Test results published in PubChem BioAssay (NCI).
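Briefly, cells in 96-well plates were exposed to five compound concentrations for 48 h, and endpoints were estimated by linear interpolation. TGI: concentration producing complete growth inhibition.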

Assays:
Experiment in all cases: NCI-60 cell line screen, 48 h
IGROV1 ovarian = system: IGROV1 ovarian
DMS 273 small cell lung = system: DMS 273 small cell lung
SF-539 CNS = system: SF-539 CNS
SK-MEL-5 melanoma = system: SK-MEL-5 melanoma
HOP-62 NSCLC = system: HOP-62 NSCLC
CAKI-1 renal = system: CAKI-1 renal
SNB-75 CNS = system: SNB-75 CNS
HT29 colon = system: HT29 colon
HCT-116 colon = system: HCT-116 colon
MALME-3M melanoma = system: MALME-3M melanoma
SNB-78 CNS = system: SNB-78 CNS
SF-295 CNS = system: SF-295 CNS
SK-MEL-2 melanoma = system: SK-MEL-2 melanoma
HL-60(TB) leukemia = system: HL-60(TB) leukemia
CCRF-CEM leukemia = system: CCRF-CEM leukemia
OVCAR-4 ovarian = system: OVCAR-4 ovarian
786-0 renal = system: 786-0 renal
HCC-2998 colon = system: HCC-2998 colon
SK-OV-3 ovarian = system: SK-OV-3 ovarian
RPMI-8226 leukemia = system: RPMI-8226 leukemia
NCI-H23 lung = system: NCI-H23 lung
M14 melanoma = system: M14 melanoma
HCT-15 colon = system: HCT-15 colon
SNB-19 CNS = system: SNB-19 CNS
KM12 colon = system: KM12 colon
NCI-H522 lung = system: NCI-H522 lung
RXF 393 renal = system: RXF 393 renal
LOX IMVI melanoma = system: LOX IMVI melanoma
U251 CNS = system: U251 CNS
M19-MEL melanoma = system: M19-MEL melanoma
UACC-62 melanoma = system: UACC-62 melanoma
NCI-H226 lung = system: NCI-H226 lung
MOLT-4 leukemia = system: MOLT-4 leukemia
SK-MEL-28 melanoma = system: SK-MEL-28 melanoma
KM20L2 colon = system: KM20L2 colon
OVCAR-8 ovarian = system: OVCAR-8 ovarian
HOP-18 NSCLC = system: HOP-18 NSCLC
SF-268 CNS = system: SF-268 CNS
HOP-92 NSCLC = system: HOP-92 NSCLC
LXFL 529 NSCLC = system: LXFL 529 NSCLC
TK-10 renal = system: TK-10 renal
UACC-257 melanoma = system: UACC-257 melanoma
UO-31 renal = system: UO-31 renal
A549 NSCLC = system: A549 NSCLC
NCI-H460 lung = system: NCI-H460 lung
SN12C renal = system: SN12C renal
DLD-1 colon = system: DLD-1 colon
COLO 205 colon = system: COLO 205 colon
XF 498 CNS = system: XF 498 CNS
EKVX NSCLC = system: EKVX NSCLC
OVCAR-3 ovarian = system: OVCAR-3 ovarian
DMS 114 small cell lung = system: DMS 114 small cell lung
K-562 leukemia = system: K-562 leukemia
SW-620 colon = system: SW-620 colon
ACHN renal = system: ACHN renal

COc1cc2cc3c4c(cc(OC)c(OC)c4c2cc1OC)CCN3
TGI (IGROV1 ovarian): > 100 µM | TGI (DMS 273 small cell lung): > 100 µM | TGI (SF-539 CNS): 51.1 µM | TGI (SK-MEL-5 melanoma): > 100 µM | TGI (HOP-62 NSCLC): > 100 µM | TGI (CAKI-1 renal): > 100 µM | TGI (SNB-75 CNS): > 100 µM | TGI (HT29 colon): 96.2 µM | TGI (HCT-116 colon): > 100 µM | TGI (MALME-3M melanoma): > 100 µM | TGI (SNB-78 CNS): > 100 µM | TGI (SF-295 CNS): > 100 µM | TGI (SK-MEL-2 melanoma): 59.7 µM | TGI (HL-60(TB) leukemia): 42.3 µM | TGI (CCRF-CEM leukemia): 77.2 µM | TGI (OVCAR-4 ovarian): > 100 µM | TGI (786-0 renal): > 100 µM | TGI (HCC-2998 colon): > 100 µM | TGI (SK-OV-3 ovarian): > 100 µM | TGI (RPMI-8226 leukemia): 68 µM | TGI (NCI-H23 lung): > 100 µM | TGI (M14 melanoma): > 100 µM | TGI (HCT-15 colon): > 100 µM | TGI (SNB-19 CNS): > 100 µM | TGI (KM12 colon): > 100 µM | TGI (NCI-H522 lung): > 100 µM | TGI (RXF 393 renal): 85.8 µM | TGI (LOX IMVI melanoma): > 100 µM | TGI (U251 CNS): > 100 µM | TGI (M19-MEL melanoma): 25.6 µM | TGI (UACC-62 melanoma): 19.5 µM | TGI (NCI-H226 lung): > 100 µM | TGI (MOLT-4 leukemia): > 100 µM | TGI (SK-MEL-28 melanoma): > 100 µM | TGI (KM20L2 colon): 88.5 µM | TGI (OVCAR-8 ovarian): > 100 µM | TGI (HOP-18 NSCLC): > 100 µM | TGI (SF-268 CNS): > 100 µM | TGI (HOP-92 NSCLC): > 100 µM | TGI (LXFL 529 NSCLC): > 100 µM | TGI (TK-10 renal): > 100 µM | TGI (UACC-257 melanoma): > 100 µM | TGI (UO-31 renal): > 100 µM | TGI (A549 NSCLC): > 100 µM | TGI (NCI-H460 lung): 82.6 µM | TGI (SN12C renal): > 100 µM | TGI (DLD-1 colon): 73.8 µM | TGI (COLO 205 colon): 63.2 µM | TGI (XF 498 CNS): > 100 µM | TGI (EKVX NSCLC): > 100 µM | TGI (OVCAR-3 ovarian): > 100 µM | TGI (DMS 114 small cell lung): > 100 µM | TGI (K-562 leukemia): 81.6 µM | TGI (SW-620 colon): 51.2 µM | TGI (ACHN renal): > 100 µM
